US10004732B2 (Novartis AG, priority 2014, dated 2018)

How the values were obtained:
[1] = Microsomal clearance assay (M)
Experimental: The experiments were performed in 96-well glass plates at 37° C. on an automated Tecan EVO platform. Test compounds at a concentration of 10 mM in pure DMSO were diluted 1:1000 in water to 10 μM. […] Reactions were initiated by the addition of 150 μL of a cofactor solution containing 2 mM NADPH.

PI 3-kinase alpha = PI 3-kinase alpha (Homo sapiens, UniProt P42336); assay: Kinase Glo Luminescent Kinase Assay (Kglo), assay A; format: biochemical; conditions: read-out: Assay A PI3Kα IC50
PI 3-kinase beta = PI 3-kinase beta (Homo sapiens, UniProt P42338); assay: Kinase Glo Luminescent Kinase Assay (Kglo), assay B; format: biochemical; conditions: read-out: Assay B PI3Kβ IC50
Vps34 = Vps34 (Homo sapiens, UniProt Q8NEB9); assay: Kinase Glo Luminescent Kinase Assay (Kglo), assay C; format: biochemical; conditions: read-out: Assay C VPS34 IC50
mTOR = mTOR (Homo sapiens, UniProt P42345); assay: Lanthascreen kinase binding assay, assay G; conditions: read-out: Assay G mTOR IC50
Experimental: Lanthascreen™ Kinase Binding Assay for mTOR (G)
Binding of an inhibitor to the kinase competes for binding with the tracer, resulting in a loss of FRET.
50 nL of compound dilutions were dispensed onto white 384-well small volume polystyrene plate.

PI 4-kinase beta = PI 4-kinase beta (Homo sapiens, UniProt Q9UBF8); assay: Kinase Glo Luminescent Kinase Assay (Kglo), assay D; format: biochemical; conditions: read-out: Assay D PI4Kβ IC50
PI 3-kinase delta = PI 3-kinase delta (Homo sapiens, UniProt O00329); assay: TR-FRET Adapta assay, assay F; conditions: read-out: Assay F PI3Kδ IC50
PI 3-kinase gamma = PI 3-kinase gamma (Homo sapiens, UniProt P48736); assay: TR-FRET Adapta assay, assay E; format: biochemical; conditions: read-out: Assay E PI3Kγ IC50
[2] = rat liver microsomes, intrinsic clearance
[3] = intrinsic clearance in rat liver microsomes

Sequence of PI 3-kinase gamma (P48736 whole entry): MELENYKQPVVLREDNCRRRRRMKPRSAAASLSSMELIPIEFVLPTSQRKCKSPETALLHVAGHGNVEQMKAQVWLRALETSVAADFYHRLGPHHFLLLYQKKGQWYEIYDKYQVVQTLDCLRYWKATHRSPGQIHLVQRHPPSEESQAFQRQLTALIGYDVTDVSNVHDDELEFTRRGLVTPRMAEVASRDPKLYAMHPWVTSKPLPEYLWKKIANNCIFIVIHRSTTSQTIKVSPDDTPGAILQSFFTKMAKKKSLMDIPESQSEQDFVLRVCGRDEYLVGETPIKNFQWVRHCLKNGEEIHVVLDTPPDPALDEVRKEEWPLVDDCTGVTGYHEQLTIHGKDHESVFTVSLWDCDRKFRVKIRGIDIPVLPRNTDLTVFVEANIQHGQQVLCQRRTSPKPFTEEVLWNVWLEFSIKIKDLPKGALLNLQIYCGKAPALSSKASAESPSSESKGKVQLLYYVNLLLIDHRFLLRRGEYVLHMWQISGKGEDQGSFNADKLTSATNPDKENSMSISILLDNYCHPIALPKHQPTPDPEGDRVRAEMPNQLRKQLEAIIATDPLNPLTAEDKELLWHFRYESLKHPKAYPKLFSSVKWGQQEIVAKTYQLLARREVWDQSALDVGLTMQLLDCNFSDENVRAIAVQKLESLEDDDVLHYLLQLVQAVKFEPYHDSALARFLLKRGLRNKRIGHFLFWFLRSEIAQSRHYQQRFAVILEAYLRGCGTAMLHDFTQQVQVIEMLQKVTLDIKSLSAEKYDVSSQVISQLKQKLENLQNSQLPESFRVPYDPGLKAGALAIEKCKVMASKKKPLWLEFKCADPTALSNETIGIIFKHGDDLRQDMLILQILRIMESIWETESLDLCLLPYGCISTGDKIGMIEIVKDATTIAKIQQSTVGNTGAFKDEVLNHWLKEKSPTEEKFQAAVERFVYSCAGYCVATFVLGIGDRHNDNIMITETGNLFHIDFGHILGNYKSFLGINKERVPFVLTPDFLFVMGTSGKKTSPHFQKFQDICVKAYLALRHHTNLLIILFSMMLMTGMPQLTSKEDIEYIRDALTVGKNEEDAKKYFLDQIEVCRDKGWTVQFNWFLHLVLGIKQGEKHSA
Sequence of PI 3-kinase alpha (P42336 whole entry): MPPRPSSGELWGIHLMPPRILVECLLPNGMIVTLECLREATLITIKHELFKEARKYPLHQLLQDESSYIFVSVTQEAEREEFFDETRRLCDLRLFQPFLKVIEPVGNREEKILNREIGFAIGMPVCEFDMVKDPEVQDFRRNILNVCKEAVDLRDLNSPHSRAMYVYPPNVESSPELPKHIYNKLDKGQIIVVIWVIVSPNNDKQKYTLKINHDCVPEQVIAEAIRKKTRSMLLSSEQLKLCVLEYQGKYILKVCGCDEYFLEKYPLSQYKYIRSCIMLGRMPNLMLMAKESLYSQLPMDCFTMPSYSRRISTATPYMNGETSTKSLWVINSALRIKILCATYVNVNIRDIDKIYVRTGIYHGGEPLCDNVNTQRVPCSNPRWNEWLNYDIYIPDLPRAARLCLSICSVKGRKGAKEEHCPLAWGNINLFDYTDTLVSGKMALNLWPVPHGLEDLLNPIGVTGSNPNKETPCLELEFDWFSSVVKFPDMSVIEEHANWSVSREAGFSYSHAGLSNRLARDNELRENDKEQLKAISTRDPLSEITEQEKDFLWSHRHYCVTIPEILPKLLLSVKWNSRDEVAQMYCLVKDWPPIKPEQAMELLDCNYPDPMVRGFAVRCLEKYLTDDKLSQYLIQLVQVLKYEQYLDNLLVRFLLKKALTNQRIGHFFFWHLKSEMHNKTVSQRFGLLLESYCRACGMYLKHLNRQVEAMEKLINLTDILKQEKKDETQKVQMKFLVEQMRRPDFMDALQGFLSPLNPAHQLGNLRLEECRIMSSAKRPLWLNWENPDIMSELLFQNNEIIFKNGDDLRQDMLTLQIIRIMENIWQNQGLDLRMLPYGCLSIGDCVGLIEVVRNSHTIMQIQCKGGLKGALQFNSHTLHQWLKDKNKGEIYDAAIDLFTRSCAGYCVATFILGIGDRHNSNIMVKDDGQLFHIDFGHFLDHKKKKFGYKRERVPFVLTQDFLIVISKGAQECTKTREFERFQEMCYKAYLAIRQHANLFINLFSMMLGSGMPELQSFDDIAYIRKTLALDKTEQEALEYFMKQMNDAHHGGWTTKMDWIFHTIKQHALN
Sequence of PI 3-kinase beta (P42338 whole entry): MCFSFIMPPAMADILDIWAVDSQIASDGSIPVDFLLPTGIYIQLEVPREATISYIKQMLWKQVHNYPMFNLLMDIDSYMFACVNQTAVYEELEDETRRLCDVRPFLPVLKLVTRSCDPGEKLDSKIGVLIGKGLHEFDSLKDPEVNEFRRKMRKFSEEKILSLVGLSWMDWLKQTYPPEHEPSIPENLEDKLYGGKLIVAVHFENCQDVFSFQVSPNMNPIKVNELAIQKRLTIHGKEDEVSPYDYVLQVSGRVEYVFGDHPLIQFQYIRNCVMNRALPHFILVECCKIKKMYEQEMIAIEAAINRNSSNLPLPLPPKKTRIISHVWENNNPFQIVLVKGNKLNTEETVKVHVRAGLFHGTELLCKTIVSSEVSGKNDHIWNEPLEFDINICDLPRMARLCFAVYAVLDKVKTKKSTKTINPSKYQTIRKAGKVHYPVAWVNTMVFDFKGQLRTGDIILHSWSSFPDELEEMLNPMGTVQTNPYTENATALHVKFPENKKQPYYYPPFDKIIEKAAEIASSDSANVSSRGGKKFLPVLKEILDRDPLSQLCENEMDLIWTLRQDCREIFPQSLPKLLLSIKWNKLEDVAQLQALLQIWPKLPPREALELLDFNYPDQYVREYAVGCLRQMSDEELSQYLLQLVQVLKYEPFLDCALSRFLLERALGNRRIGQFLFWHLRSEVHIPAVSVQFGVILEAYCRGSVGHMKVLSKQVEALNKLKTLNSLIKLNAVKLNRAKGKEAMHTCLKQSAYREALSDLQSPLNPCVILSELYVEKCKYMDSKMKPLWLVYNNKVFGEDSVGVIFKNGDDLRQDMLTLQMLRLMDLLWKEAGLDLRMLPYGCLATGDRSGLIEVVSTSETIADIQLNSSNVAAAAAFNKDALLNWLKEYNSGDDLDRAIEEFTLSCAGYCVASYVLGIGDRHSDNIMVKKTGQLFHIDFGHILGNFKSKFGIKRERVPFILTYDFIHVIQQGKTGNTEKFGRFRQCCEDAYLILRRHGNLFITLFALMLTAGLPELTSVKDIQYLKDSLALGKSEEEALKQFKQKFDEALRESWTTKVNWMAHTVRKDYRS
Sequence of PI 3-kinase beta (P27986 461-568 partner): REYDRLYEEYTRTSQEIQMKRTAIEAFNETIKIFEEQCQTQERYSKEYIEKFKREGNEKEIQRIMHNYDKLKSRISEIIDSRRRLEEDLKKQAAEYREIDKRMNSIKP
Sequence of Vps34 (Q8NEB9 whole entry, species assumed): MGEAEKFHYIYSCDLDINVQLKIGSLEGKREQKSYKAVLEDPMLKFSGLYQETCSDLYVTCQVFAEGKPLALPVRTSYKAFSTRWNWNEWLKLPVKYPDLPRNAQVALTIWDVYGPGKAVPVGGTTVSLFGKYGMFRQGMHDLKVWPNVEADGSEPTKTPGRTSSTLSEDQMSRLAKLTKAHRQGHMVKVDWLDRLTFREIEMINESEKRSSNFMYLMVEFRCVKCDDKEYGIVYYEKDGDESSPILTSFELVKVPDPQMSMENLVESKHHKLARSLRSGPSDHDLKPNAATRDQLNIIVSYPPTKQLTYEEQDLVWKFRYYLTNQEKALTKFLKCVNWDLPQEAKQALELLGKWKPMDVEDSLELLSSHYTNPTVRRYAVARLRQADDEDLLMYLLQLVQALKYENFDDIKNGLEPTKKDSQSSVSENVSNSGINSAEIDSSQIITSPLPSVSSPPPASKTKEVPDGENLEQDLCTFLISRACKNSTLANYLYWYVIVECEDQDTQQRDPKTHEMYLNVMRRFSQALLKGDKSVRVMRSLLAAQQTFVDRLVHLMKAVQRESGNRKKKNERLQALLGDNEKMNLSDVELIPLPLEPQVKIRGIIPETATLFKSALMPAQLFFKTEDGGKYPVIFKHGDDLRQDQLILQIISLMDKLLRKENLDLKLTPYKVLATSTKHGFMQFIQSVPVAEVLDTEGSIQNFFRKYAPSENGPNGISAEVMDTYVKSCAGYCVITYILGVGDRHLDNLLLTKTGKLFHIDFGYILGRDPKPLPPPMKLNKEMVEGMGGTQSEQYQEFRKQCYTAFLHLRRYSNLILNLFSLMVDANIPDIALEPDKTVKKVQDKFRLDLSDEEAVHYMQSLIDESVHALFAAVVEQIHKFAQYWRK
Sequence of PI 4-kinase beta (Q9UBF8 whole entry): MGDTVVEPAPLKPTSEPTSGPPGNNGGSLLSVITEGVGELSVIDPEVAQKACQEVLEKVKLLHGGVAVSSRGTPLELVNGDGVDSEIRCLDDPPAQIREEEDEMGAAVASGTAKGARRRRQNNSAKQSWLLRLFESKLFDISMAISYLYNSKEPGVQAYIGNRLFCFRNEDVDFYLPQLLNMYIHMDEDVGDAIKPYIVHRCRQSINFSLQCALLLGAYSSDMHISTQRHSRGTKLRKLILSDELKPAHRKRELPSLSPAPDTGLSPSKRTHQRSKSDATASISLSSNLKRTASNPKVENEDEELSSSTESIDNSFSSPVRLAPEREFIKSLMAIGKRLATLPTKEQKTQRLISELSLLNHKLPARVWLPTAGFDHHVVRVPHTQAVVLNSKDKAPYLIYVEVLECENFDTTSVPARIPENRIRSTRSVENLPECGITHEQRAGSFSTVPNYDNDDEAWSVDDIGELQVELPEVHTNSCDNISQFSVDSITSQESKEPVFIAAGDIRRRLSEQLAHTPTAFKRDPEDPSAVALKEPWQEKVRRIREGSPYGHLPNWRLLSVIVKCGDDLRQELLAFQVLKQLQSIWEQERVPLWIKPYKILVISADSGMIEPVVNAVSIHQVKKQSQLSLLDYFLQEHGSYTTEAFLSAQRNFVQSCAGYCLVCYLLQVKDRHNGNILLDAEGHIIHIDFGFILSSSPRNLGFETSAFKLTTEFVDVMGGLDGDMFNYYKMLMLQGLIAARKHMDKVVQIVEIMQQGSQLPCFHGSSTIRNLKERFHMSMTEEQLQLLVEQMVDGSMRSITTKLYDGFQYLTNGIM

Structure (SMILES)	Assay M RLM CI(int) [1, 2]	IC50 (PI 3-kinase alpha)	IC50 (PI 3-kinase beta)	IC50 (Vps34)	IC50 (mTOR)	IC50 (PI 4-kinase beta)	IC50 (PI 3-kinase delta)	IC50 (PI 3-kinase gamma)	other results
COCCNS(=O)(=O)c1cccc(-c2cnc(N)c(C(=O)c3cccnc3)n2)c1 [(iv), reference compound]	465 µL/min/mg	–	–	–	–	–	–	–	–
COCCNS(=O)(=O)c1cc(-c2cnc(N)c(C(=O)c3cccnc3)n2)c(F)cc1F [(vii), reference compound]	283 µL/min/mg	–	–	–	–	–	–	–	–
Cc1ccc(S(=O)(=O)N2CCOCC2)cc1-c1cnc(N)c(C(=O)c2cccnc2)c1 [(i), reference compound]	47 µL/min/mg	–	–	–	–	–	–	–	–
Cc1ncc(-c2nc(-c3cc(S(=O)(=O)N[C@@H]4CCOC4)ccc3C)cnc2N)s1 [Example 45.7a, (R)-3-(5-Amino-6-(2-methylthiazol-5-yl)pyrazin-2-yl)-4-methyl-N-(tetrahydrofuran-3-yl)benzenesulfonamide or (5)-3-(5-Amino-6-(2-methylthiazol-5-yl)pyrazin-2-yl)-4-methyl-N-(tetrahydrofuran-3-yl)benzenesulfonamide]	–	–	–	–	–	–	–	–	Assay M RLM CI(int) [1, 3]: 151 µL/min/mg
CN1CCN(S(=O)(=O)c2cccc(-c3cnc(N)c(C(=O)c4cccnc4)c3)c2)CC1 [(ii), reference compound]	233 µL/min/mg	–	–	–	–	–	–	–	–
Cc1nc(N)ncc1-c1ccc(Cl)c(S(=O)(=O)NCCO)c1 [(xii), reference compound]	9 µL/min/mg	–	–	–	–	–	–	–	–
Cc1ncc(-c2nc(-c3cc(S(=O)(=O)N[C@@H]4CCOC4)ccc3C)cnc2N)s1 [Example 45.7b, (R)-3-(5-Amino-6-(2-methylthiazol-5-yl)pyrazin-2-yl)-4-methyl-N-(tetrahydrofuran-3-yl)benzenesulfonamide or (5)-3-(5-Amino-6-(2-methylthiazol-5-yl)pyrazin-2-yl)-4-methyl-N-(tetrahydrofuran-3-yl)benzenesulfonamide]	–	–	–	–	–	–	–	–	Assay M RLM CI(int) [1, 3]: 135 µL/min/mg
Nc1ncc(-c2ccc(Cl)c(S(=O)(=O)N[C@H]3CC[C@H](O)CC3)c2)nc1C(=O)c1cccnc1 [(v), reference compound]	173 µL/min/mg	–	–	–	–	–	–	–	–
CNC(=O)c1nc(-c2ccc(Cl)c(S(=O)(=O)Nc3cccc(F)c3C)c2)cnc1N [(xi), reference compound]	271 µL/min/mg	–	–	–	–	–	–	–	–

Continued, in another order:

Assay M RLM CI(int) [1, 2]	IC50 (PI 3-kinase alpha)	IC50 (PI 3-kinase beta)	IC50 (Vps34)	IC50 (mTOR)	IC50 (PI 4-kinase beta)	IC50 (PI 3-kinase delta)	IC50 (PI 3-kinase gamma)	Structure (SMILES)	other results
–	1480 nM	> 9100 nM	> 9100 nM	4820 nM	> 9100 nM	2080 nM	508 nM	Cc1ccc(S(=O)(=O)NCCC(C)(C)O)cc1-c1cnc(N)c(-c2cncnc2)n1 [Example 119.20]	–
–	2300 nM	> 9100 nM	> 9100 nM	> 9100 nM	> 9100 nM	2000 nM	260 nM	CNCCNS(=O)(=O)c1ccc(C)c(-c2cnc(N)c(-c3ccnc(C)c3)n2)c1 [Example 129.33, 3-(5-amino-6-(2-methylpyridin-4-yl)pyrazin-2-yl)-4-methyl-N-(2-(methylamino)ethyl)benzenesulfonamide]	–
–	700 nM	> 9100 nM	> 9100 nM	> 9100 nM	> 9100 nM	1200 nM	110 nM	Cc1cc(-c2nc(-c3cc(S(=O)(=O)NCCN)ccc3C)cnc2N)ccn1 [Example 129.34, 3-(5-amino-6-(2-methylpyridin-4-yl)pyrazin-2-yl)-N-(2-aminoethyl)-4-methylbenzenesulfonamide]	–
–	2000 nM	6600 nM	> 9100 nM	> 9100 nM	> 9100 nM	1700 nM	150 nM	Cc1cc(-c2nc(-c3cc(S(=O)(=O)NC[C@H]4CCC[C@@H](CN)C4)ccc3C)cnc2N)ccn1 [Example 129.42, 3-(5-amino-6-(2-methylpyridin-4-yl)pyrazin-2-yl)-N-(((1S,3R)-3-(aminomethyl)cyclohexyl)methyl)-4-methylbenzenesulfonamide]	–
–	9000 nM	> 9100 nM	> 9100 nM	> 9100 nM	> 9100 nM	2100 nM	760 nM	Cc1cc(-c2nc(-c3cc(S(=O)(=O)NCCN4CCCC4)ccc3C)cnc2N)ccn1 [Example 129.27, 3-(5-amino-6-(2-methylpyridin-4-yl)pyrazin-2-yl)-4-methyl-N-(2-(pyrrolidin-1-yl)ethyl)benzenesulfonamide]	–
